Experimental data as given in patent US9840509B2, “Heterocyclic compounds” (CADILA HEALTHCARE LIMITED, priority 2014, dated 2017).
pIC50: −log10 of the molar value.

Experiments:
[1] = biological target: T1, CYP 2D6 (Homo sapiens, UniProt P10635); assay: CYP inhibition in human liver microsomes, 2D6; type: in vitro ADME; conditions: pH 7.4, @ 10 μM concn
T1 construct: from tissue; host or cells: human liver microsomes
Experimental: (§1) CYP Inhibition Studies: CYP inhibition studies were performed with test compounds, at two concentrations ([…] and 10 μM), using human liver microsomes (Yao, M., Zhu, M., Sinz, M. W., Zhang, H., Humphreys, W. F., Rodrigues, A. D and Dai, R., Journal of Pharmaceutical and Biomedical Analysis, 2007, 44, 211-223; Walsky, R. L and Obach, R. S., Drug Metab. Dispos., 2004, 32, 647-660). Human liver microsomes were mixed with 100 mM phosphate buffer (pH 7.4) and probe substrate and warmed to […] in microcentrifuge tubes. Aliquots of this mixture (499 μL) were transferred to each pre-labeled microcentrifuge tubes, followed by addition of the 1 μL of inhibitors (test compound/CYP-specific positive control inhibitor) or control solvent (DMSO). Aliquots of this mixture (90 μL) were transferred to each pre-labeled microcentrifuge tubes in duplicate. Final solvent concentrations were 0.2% (v/v) or less. Incubations were commenced with the addition of 10 μL NADPH stock (assay concentration, 1 mM) to a final incubation volume of 100 μL and incubated in shaking water bath (at 37° C. and 100 rpm), for the period defined in Tables 1. Incubations were terminated by addition of 400 μL of termination solvent (CH3CN) containing internal standard. The terminated samples were vortex-mixed, centrifuged at 10000 rpm for 5 min and supernatant transferred into HPLC vials for LC-MS/MS analysis to monitor metabolites produced by marker CYP reactions. […] Animals

[2] = biological target: T2, recombinant purified human BTK (Homo sapiens, UniProt Q06187); assay: In vitro BTK kinase assay on ADP Glo platform; type: biochemical; conditions: 2 hr room temperature, read-out: In-vitro BTK inhibitory activity: IC50
T2 construct: purchased SignalChem, USA
T2 sequence (Q06187 whole entry): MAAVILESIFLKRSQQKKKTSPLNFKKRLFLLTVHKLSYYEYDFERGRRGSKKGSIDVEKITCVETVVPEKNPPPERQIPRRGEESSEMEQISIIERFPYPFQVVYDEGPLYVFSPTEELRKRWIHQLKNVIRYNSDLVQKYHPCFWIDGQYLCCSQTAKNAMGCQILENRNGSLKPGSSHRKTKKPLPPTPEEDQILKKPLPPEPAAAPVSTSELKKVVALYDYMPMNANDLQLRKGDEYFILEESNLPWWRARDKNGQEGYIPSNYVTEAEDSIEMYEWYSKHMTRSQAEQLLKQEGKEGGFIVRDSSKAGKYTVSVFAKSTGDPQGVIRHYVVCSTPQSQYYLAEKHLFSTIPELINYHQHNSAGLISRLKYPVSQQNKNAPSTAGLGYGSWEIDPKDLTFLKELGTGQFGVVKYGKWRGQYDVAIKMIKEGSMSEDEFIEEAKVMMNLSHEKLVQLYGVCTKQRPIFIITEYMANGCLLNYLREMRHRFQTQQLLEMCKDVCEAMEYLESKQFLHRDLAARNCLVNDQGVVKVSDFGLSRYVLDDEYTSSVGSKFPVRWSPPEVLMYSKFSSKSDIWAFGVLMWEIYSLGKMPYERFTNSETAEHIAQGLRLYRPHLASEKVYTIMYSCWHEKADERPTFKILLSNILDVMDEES
Experimental: Testing of Compounds of the Invention Biological Studies: In vitro BTK Inhibitory Activity Assay:
In vitro BTK inhibitory activity of test compounds were screened using BTK kinase assay on ADP Glo platform (Li, H., Totoritis, R. D., Lor, L. A., Schwartz, B., Caprioli, P., Jurewicz, A. J and Zhang, G., Assay Drug Dev. Technol., 2009, 7(6), 598-605). Briefly, fixed amount of recombinant purified human BTK (3 ng/reaction from SignalChem, USA) were incubated with increasing concentration of test compounds, in 1× kinase reaction buffer (40 mM Tris-Cl, pH7.5, 20 mM MgCl2, 2 mM MnCl2, 0.1 mg/ml BSA and 50 μM DTT). Enzymatic reaction was initiated by adding a substrate cocktail containing 50 µM of ATP (final concentration) and […] of polyGln4Tyr1 (Signal Chem) in total 25 μl of reaction, in round bottom white 96 well plate. The reaction mixture was incubated at room temperature for 2 hr. After 2 hr of incubation, 10 μl of the reaction mix was mixed with […] of ADP Glo reagent, in another round bottom white 96 well plate and incubated at room temperature for 40 min. This was followed by addition of kinase detection reagent (20 μl per reaction) and incubation at room temperature for 30 min. Finally, plate was read for luminescence at an integration time of 500 millisecond per well. Data were plotted taking Enzyme with no inhibitor set as the 100% kinase activity and for dose response curve, % Kinase activity was plotted against conc on Log scale and IC50 was determined by non linear curve fitting method using GraphPad Prism software 6. The in vitro BTK inhibitory activity (IC50) for representative compounds are listed in […]

[3] = biological target: T3, CYP 2C9 (Homo sapiens, UniProt P11712); assay: CYP inhibition in human liver microsomes, 2C9; type: in vitro ADME; conditions: pH 7.4, @ 10 μM concn
T3 construct: from tissue; host or cells: human liver microsomes
T3 sequence (P11712 whole entry): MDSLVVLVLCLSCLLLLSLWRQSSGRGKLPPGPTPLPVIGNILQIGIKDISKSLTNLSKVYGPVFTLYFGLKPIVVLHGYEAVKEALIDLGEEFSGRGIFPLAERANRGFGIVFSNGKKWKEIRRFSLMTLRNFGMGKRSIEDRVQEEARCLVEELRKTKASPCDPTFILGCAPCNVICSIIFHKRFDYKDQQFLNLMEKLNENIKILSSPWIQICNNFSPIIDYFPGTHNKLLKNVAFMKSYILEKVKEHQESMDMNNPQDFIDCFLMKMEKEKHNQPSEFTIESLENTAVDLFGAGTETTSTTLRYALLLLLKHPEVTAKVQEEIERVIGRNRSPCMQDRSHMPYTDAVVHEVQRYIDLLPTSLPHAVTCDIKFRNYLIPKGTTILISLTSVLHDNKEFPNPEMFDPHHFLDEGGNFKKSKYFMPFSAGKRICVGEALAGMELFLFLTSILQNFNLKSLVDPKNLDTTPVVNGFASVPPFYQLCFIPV
Experimental: as §1

[4] = biological target: T4, CYP 2C19 (Homo sapiens, UniProt P33261); assay: CYP inhibition in human liver microsomes, 2C19; type: in vitro ADME; conditions: pH 7.4, @ 10 μM concn
T4 construct: from tissue; host or cells: human liver microsomes
T4 sequence (P33261 whole entry): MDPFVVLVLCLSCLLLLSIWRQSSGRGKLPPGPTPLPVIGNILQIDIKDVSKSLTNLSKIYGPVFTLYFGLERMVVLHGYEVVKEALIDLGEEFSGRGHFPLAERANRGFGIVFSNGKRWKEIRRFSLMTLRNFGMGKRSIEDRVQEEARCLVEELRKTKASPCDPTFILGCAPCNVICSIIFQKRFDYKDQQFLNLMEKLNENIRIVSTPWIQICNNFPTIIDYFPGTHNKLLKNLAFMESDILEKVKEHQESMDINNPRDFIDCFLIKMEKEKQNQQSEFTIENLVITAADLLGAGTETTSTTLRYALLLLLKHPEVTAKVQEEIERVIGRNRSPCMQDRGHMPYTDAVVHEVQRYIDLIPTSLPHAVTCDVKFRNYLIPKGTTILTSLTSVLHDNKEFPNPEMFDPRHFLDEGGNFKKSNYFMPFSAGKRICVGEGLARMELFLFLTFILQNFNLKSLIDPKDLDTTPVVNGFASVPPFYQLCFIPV
Experimental: as §1

[5] = biological target: T5, CYP 3A4 (Homo sapiens, UniProt P08684); assay: CYP inhibition in human liver microsomes, 3A4; type: in vitro ADME; conditions: pH 7.4, @ 10 μM concn
T5 construct: from tissue; host or cells: human liver microsomes
T5 sequence (P08684 whole entry): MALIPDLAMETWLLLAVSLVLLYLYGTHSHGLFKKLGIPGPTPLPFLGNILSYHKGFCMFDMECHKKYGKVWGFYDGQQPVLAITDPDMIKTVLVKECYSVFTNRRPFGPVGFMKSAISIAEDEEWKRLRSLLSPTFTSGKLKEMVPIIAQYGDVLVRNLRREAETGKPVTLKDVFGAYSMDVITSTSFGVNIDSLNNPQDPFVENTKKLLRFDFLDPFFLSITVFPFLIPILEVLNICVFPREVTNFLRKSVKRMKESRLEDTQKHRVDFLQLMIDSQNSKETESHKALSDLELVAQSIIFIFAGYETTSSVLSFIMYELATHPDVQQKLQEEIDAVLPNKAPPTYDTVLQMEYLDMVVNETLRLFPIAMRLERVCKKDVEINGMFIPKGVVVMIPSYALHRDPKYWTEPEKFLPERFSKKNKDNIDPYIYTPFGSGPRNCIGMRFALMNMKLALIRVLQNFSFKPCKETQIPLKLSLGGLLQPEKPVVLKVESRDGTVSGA
Experimental: as §1

[6] = biological target: T6, CYP 2C8 (Homo sapiens, UniProt P10632); assay: CYP inhibition in human liver microsomes, 2C8; type: in vitro ADME; conditions: pH 7.4, @ 10 μM concn
T6 construct: from tissue; host or cells: human liver microsomes
T6 sequence (P10632 1-490): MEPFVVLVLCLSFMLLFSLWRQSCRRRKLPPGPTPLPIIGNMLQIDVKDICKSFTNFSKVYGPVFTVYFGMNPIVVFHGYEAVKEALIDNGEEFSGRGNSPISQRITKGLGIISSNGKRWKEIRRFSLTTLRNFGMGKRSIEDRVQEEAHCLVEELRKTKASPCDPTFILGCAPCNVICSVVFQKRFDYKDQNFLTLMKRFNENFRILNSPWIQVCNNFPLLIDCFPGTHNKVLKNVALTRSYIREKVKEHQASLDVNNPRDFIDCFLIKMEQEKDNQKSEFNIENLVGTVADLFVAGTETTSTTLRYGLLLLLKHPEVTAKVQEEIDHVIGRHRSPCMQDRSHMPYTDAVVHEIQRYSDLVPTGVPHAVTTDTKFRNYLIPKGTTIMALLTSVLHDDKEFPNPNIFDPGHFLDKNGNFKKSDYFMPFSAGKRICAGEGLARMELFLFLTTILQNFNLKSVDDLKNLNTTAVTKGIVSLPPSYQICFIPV
Experimental: as §1

[7] = biological target: T7, CYP 1A2 (Homo sapiens, UniProt P05177); assay: CYP inhibition in human liver microsomes, 1A2; type: in vitro ADME; conditions: pH 7.4, @ 10 μM concn
T7 construct: from tissue; host or cells: human liver microsomes
T7 sequence (P05177 1-516): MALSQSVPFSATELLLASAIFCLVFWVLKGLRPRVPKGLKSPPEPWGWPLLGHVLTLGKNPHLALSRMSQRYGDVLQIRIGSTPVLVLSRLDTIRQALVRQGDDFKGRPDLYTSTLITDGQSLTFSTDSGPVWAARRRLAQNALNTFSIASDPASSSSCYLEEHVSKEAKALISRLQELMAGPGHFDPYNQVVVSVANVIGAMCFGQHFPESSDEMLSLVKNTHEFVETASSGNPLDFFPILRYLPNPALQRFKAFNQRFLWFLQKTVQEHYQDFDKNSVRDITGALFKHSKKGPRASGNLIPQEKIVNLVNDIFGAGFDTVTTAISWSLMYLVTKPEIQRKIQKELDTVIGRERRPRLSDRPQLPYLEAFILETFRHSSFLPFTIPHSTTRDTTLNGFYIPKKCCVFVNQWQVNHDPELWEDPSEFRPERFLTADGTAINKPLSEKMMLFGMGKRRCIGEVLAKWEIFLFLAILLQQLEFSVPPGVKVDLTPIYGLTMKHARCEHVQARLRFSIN
Experimental: as §1

T1 sequence (P10635 whole entry): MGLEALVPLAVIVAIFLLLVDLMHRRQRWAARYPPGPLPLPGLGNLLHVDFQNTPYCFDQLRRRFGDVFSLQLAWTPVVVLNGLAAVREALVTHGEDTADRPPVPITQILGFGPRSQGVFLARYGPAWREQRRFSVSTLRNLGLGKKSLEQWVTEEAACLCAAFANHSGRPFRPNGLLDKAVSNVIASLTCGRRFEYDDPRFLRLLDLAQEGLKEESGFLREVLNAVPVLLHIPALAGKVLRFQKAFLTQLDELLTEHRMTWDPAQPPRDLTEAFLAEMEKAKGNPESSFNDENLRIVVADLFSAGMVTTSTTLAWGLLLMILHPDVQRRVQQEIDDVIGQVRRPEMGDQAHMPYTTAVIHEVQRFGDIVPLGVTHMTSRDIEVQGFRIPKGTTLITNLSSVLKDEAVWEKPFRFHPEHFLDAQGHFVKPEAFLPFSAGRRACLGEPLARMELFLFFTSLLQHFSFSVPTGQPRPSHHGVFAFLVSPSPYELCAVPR

| SMILES | inhibition at 10 μM [1] [%] | pIC50 [2] | inhibition at 10 μM [3] [%] | inhibition at 10 μM [4] [%] | inhibition at 10 μM [5] [%] | inhibition at 10 μM [6] [%] | inhibition at 10 μM [7] [%] |
| --- | --- | --- | --- | --- | --- | --- | --- |
| C#CC(=O)N1CC2CC(n3nc(-c4ccc(Oc5ccccc5)cc4)c4c(N)ncnc43)CC2C1 (centres unmarked) [Compound 11, 1-(5-(4-amino-3-(4-phenoxyphenyl)-1H-pyrazolo[3,4-d]pyrimidin-1-yl)hexahydrocyclopenta[c]pyrrol-2(1H)-yl)prop-2-yn-1-one] | < 50 | 7.89 | < 50 | < 50 | < 50 | < 50 | < 50 |
| C=CC(=O)N1CC2CC(n3nc(-c4ccc(Oc5ccccc5)c(OC)c4)c4c(N)ncnc43)CC2C1 (centres unmarked) [Compound 12, 1-(5-(4-amino-3-(3-methoxy-4-phenoxyphenyl)-1H-pyrazolo[3,4-d]pyrimidin-1-yl)hexahydrocyclopenta[c]pyrrol-2(1H)-yl)prop-2-en-1-one] | < 50 | 7.43 | > 50 | < 50 | > 50 | > 50 | < 50 |
| C=CC(=O)N1CC2CC(n3nc(-c4ccc(C(=O)Nc5ccccn5)cc4)c4c(N)ncnc43)CC2C1 (centres unmarked) [Compound 13, 4-(1-(2-acryloyloctahydrocyclopenta[c]pyrrol-5-yl)-4-amino-1H-pyrazolo[3,4-d]pyrimidin-3-yl)-N-(pyridin-2-yl)benzamide] | < 50 | 8.74 | < 50 | > 50 | < 50 | < 50 | < 50 |
| C=CC(=O)N1CC2CC(n3nc(-c4ccc5nc(-c6ccccc6)sc5c4)c4c(N)ncnc43)CC2C1 (centres unmarked) [Compound 14, 1-(5-(4-amino-3-(2-phenylbenzo[d]thiazol-6-yl)-1H-pyrazolo[3,4-d]pyrimidin-1-yl)hexahydrocyclopenta[c]pyrrol-2(1H)-yl)prop-2-en-1-one] | < 50 | 8.85 | < 50 | < 50 | < 50 | < 50 | < 50 |
| C=CC(=O)N1CC2CC(n3nc(-c4ccc5c(c4)OCO5)c4c(N)ncnc43)CC2C1 (centres unmarked) [Compound 15, 1-(5-(4-amino-3-(benzo[d] [1,3]dioxol-5-yl)-1H-pyrazolo[3,4-d]pyrimidin-1-yl)hexahydrocyclopenta[c]pyrrol-2(1H)-yl)prop-2-en-1-one] | < 50 | 7.74 | < 50 | < 50 | > 50 | < 50 | < 50 |
| C=CC(=O)N1CC2CC(n3nc(-c4ccc(-c5nnc(C)o5)cc4)c4c(N)ncnc43)CC2C1 (centres unmarked) [Compound 16, 1-(5-(4-amino-3-(4-(5-methyl-1,3,4-oxadiazol-2-yl)phenyl)-1H-pyrazolo[3,4-d]pyrimidin-1-yl)hexahydrocyclopenta[c]pyrrol-2(1H)-yl)prop-2-en-1-one] | < 50 | 8.77 | < 50 | < 50 | < 50 | < 50 | < 50 |
| C=CC(=O)N1CC2CC(n3nc(-c4ccc5ncoc5c4)c4c(N)ncnc43)CC2C1 (centres unmarked) [Compound 17, 1-(5-(4-amino-3-(benzo[d]oxazol-6-yl)-1H-pyrazolo[3,4-d]pyrimidin-1-yl)hexahydrocyclopenta[c]pyrrol-2(1H)-yl)prop-2-en-1-one] | < 50 | 8.30 | < 50 | < 50 | > 50 | < 50 | < 50 |
| C=CS(=O)(=O)N1CC2CC(n3nc(-c4ccc(Oc5ccccc5)cc4)c4c(N)ncnc43)CC2C1 (centres unmarked) [Compound 18, 3-(4-phenoxyphenyl)-1-(2-(vinylsulfonyl)octahydrocyclopenta[c]pyrrol-5-yl)-1H-pyrazolo[3,4-d]pyrimidin-4-amine] | < 50 | 6.66 | > 50 | < 50 | > 50 | > 50 | < 50 |
| C=CC(=O)N1CC2CC(n3nc(-c4ccc5nc(-c6ccccc6)oc5c4)c4c(N)ncnc43)CC2C1 (centres unmarked) [Compound 19, 1-(5-(4-amino-3-(2-phenylbenzo[d]oxazol-6-yl)-1H-pyrazolo[3,4-d]pyrimidin-1-yl)hexahydrocyclopenta[c]pyrrol-2(1H)-yl)prop-2-en-1-one] | < 50 | 8.40 | < 50 | < 50 | < 50 | < 50 | < 50 |
| C=CC(=O)N1CC2CC(n3nc(-c4ccc5nc(Oc6ccccc6)sc5c4)c4c(N)ncnc43)CC2C1 (centres unmarked) [Compound 20, 1-(5-(4-amino-3-(2-phenoxybenzo[d]thiazol-6-yl)-1H-pyrazolo [3,4-d]pyrimidin-1-yl)hexahydrocyclopenta[c]pyrrol-2(1H)-yl)prop-2-en-1-one] | < 50 | 6.65 | > 50 | < 50 | > 50 | > 50 | < 50 |
| C=CC(=O)N1CC2CC(n3nc(-c4ccc(-c5cnn(C)c5)cc4)c4c(N)ncnc43)CC2C1 (centres unmarked) [Compound 21, 1-(5-(4-amino-3-(4-(1-methyl-1H-pyrazol-4-yl)phenyl)-1H-pyrazolo [3,4-d]pyrimidin-1-yl)hexahydrocyclopenta[c]pyrrol-2(1H)-yl)prop-2-en-1-one] | < 50 | 7.30 | < 50 | < 50 | < 50 | < 50 | > 50 |
